Like-named read-outs stand apart in the source and are kept apart here.
Tests used:
EGFR-kinase domain = target: T1, EGFR-kinase domain (Homo sapiens, UniProt P00533); assay: In vitro inhibition of EGFR (Flash Plate assay); format: biochemical; conditions: full dose response 1.10^−6M to 1.10^−10M, read-out: C12 EGFR flash Score
T1 construct: 0.5 μg EGFR-kinase domain/well
Experimental: The in vitro inhibition of EGFR was assessed using either the Flash Plate technology or the glass-fiber filter technology as described by Davies, S. P. et al., Biochem J. (2000), 351; p. 95-105. The Flash Plate technology is generally described by B. A. Brown et al. in High Throughput Screening (1997), p. 317-328. Editor(s): Devlin, John P. Publisher: Dekker, New York, N.Y.
In the Flash Plate EGFR kinase reaction assay, a kinase substrate consisting of biotinylated poly(L-glutamic acid-L-tyrosine) (poly(GT)biotin), is incubated with the aforementioned protein in the presence of (^33P) radiolabeled ATP. (^33P) phosphorylation of the substrate is subsequently measured as light energy emitted using a streptavidin-coated Flash Plate (PerkinElmer Life Sciences) by trapping and quantifying the binding of the biotin tagged and radiolabeled substrate.
The EGFR kinase reaction is performed at 30° C. for 60 minutes in a 96-well microtiter FlashPlate (PerkinElmer Life Sciences). For each of the tested compounds a full dose response 1.10^−6M to 1.10^−10M has been performed. IRESSA® and Tarceva™ (erlotinib) were used as reference compounds. The 100 μl reaction volume contains 54.5 mM TrisHCl pH 8.0, 10 mM MgCl2, 100 μM Na3VO4, 5.0 μM unlabeled ATP, 1 mM DTT, 0.009% BSA, 0.8 μCi AT^33P, 0.35 μg/well poly(GT)biotin and 0.5 μg EGFR-kinase domain/well.
The reaction is stopped by aspirating the reaction mixture and washing the plate 3× with 200 μl wash/stop buffer (PBS+100 mM EDTA). After the final wash step 200 μl of wash/stop buffer was added to each well and the amount of phosphorylated (^33P) Poly(GT)biotin determined by counting (30 sec/well) in a microtiterplate scintillation counter.

ErbB2 (h) = ErbB2 (h) (Homo sapiens, UniProt P04626); assay: ErbB2 human kinase assay (filter); format: biochemical; conditions: read-out: C13 ERBB 2 Filter Score
Chain of ErbB2 (h) (P04626 23-1255): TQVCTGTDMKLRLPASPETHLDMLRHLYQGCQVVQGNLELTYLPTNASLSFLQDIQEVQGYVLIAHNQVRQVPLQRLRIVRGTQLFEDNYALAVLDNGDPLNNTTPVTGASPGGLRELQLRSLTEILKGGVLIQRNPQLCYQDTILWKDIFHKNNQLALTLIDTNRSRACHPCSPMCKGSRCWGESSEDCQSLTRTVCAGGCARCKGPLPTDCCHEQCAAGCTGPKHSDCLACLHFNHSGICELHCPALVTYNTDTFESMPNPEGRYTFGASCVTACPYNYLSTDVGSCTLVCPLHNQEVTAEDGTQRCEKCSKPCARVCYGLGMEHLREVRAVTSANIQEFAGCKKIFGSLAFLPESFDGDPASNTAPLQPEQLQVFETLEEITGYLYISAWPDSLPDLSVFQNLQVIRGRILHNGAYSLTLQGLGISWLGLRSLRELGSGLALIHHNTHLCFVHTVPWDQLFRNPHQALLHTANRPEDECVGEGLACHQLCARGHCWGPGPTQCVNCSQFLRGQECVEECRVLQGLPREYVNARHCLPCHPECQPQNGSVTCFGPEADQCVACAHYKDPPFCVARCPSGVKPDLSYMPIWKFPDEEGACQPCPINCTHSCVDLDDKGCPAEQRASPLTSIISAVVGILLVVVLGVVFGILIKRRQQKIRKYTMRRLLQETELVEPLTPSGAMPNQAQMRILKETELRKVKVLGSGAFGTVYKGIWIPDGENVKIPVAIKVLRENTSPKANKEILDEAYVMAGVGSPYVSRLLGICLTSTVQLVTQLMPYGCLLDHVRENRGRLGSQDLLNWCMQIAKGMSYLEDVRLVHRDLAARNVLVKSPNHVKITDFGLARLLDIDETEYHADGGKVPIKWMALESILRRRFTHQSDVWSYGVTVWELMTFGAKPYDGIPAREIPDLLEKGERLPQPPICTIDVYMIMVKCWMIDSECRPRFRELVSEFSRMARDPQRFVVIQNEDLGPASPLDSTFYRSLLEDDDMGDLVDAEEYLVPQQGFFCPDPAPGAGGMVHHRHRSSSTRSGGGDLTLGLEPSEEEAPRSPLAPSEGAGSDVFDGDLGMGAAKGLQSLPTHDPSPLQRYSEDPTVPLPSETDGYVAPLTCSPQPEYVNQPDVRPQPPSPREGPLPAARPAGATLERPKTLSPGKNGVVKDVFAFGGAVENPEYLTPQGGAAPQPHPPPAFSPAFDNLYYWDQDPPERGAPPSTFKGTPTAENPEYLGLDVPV
Experimental: (§1) Similarly to the above the in vitro inhibition of two other kinases, i.e. human ErbB2 and human ErbB4 was tested for some of the compounds according to the invention.
(§2) In a final reaction volume of 25 μl, ErbB2 (h) (5-10 mU) is incubated with 8 mM MOPS pH 7.0, 0.2 mM EDTA, 10 mM MnCl2, 0.1 mg/ml poly(Glu, Tyr) 4:1, 10 mM MgAcetate and [γ-33P-ATP] (specific activity approx. 500 cpm/pmol, concentration as required). The reaction is initiated by the addition of the MgATP mix. After incubation for 40 minutes at room temperature, the reaction is stopped by the addition of 5 μl of a 3% phosphoric acid solution. 10 μl of the reaction is then spotted onto a Filtermat A and washed three times for 5 minutes in 75 mM phosphoric acid and once in methanol prior to drying and scintillation counting.

ErbB4 (h) = ErbB4 (h) (Homo sapiens, UniProt Q15303); assay: ErbB4 human kinase assay (filter); format: biochemical; conditions: read-out: C14 ERBB 4 Filter Score
Chain of ErbB4 (h) (Q15303 26-1308): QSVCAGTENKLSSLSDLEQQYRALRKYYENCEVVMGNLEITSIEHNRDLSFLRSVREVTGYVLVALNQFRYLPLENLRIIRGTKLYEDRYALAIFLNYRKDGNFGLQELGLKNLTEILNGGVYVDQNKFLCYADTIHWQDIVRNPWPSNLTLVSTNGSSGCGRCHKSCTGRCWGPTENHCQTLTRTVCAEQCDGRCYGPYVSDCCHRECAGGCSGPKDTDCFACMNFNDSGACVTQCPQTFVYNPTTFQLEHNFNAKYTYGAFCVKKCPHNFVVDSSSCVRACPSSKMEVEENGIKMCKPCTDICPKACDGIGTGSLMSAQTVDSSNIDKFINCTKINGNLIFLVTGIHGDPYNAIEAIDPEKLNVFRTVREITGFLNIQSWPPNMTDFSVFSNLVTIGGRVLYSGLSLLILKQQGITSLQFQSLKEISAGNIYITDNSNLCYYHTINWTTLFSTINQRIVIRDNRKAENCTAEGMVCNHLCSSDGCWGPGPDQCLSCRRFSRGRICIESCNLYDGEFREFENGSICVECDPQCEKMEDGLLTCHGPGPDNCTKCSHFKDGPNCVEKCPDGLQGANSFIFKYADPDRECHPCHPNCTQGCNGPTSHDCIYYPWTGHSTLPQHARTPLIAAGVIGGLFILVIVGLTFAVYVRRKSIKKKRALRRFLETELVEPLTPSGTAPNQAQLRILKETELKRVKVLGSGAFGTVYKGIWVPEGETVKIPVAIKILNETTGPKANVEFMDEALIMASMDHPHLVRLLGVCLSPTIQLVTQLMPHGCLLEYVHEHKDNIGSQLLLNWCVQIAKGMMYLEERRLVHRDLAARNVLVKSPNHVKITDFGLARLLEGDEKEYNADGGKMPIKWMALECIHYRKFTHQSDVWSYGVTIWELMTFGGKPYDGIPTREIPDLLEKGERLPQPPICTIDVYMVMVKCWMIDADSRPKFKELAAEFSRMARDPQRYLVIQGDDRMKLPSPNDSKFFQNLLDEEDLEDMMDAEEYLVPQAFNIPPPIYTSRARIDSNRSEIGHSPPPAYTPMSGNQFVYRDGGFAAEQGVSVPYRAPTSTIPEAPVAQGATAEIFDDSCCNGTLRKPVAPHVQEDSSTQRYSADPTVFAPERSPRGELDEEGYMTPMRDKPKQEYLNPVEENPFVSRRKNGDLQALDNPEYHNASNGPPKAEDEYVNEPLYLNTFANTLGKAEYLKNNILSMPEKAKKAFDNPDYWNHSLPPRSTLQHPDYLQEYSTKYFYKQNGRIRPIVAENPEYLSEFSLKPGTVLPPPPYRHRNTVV
Experimental: as §1
as §2, with “ErbB4” for “ErbB2”

Flt3 (h) = Flt3 (h) (Homo sapiens, UniProt P36888); assay: Flt3 human kinase assay (glass-fiber filter); format: biochemical; conditions: test concentration of 10^−6M; read-out: C6 score (inhibition of Flt3 human)
Chain of Flt3 (h) (P36888 27-993): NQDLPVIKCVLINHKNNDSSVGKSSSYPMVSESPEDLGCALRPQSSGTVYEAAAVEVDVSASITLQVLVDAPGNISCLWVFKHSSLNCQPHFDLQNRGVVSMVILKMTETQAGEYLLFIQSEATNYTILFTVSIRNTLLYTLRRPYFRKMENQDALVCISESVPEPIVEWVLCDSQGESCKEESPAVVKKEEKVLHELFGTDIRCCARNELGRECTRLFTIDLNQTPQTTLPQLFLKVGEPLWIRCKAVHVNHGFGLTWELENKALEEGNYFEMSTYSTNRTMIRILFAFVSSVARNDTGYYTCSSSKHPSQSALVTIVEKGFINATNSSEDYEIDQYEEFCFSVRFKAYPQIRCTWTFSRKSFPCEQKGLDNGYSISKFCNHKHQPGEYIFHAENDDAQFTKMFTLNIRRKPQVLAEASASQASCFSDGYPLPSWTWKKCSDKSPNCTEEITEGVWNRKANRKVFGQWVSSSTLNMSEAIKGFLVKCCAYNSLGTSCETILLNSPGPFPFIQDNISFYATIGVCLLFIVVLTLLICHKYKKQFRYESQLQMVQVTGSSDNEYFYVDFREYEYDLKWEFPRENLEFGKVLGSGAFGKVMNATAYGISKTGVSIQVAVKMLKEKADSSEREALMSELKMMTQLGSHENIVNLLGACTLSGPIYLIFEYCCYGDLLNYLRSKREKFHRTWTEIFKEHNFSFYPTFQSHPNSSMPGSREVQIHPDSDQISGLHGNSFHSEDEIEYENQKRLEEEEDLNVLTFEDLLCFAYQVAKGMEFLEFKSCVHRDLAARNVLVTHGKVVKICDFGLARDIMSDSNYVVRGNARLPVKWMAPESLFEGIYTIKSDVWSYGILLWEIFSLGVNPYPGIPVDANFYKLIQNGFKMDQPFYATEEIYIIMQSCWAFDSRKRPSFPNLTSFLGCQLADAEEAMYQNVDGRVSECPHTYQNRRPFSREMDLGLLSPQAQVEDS
In short: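 Human Flt3 (5-10 mU) with 50 μM peptide substrate in 8 mM MOPS pH 7.0, 0.2 mM EDTA, 10 mM Mg acetate and [γ-33P]ATP (concentration as required), 40 min at room temperature. Reaction stopped with phosphoric acid; substrate 33P incorporation counted on P30 glass-fiber filter.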

Fms (h) = Fms (h) (Homo sapiens, UniProt P07333); assay: Fms human kinase assay (glass-fiber filter); format: biochemical; conditions: test concentration of 10^−6M; read-out: C7 score (inhibition of Fms human)
In short: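 Radiometric filter-binding assay: Fms (5-10 mU) with 250 μM peptide substrate and [γ-33P]ATP in 8 mM MOPS pH 7.0, 10 mM Mg acetate, 40 min at room temperature. Reaction stopped with phosphoric acid; substrate-bound 33P counted on P30 filtermat.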

Lck (h) = Lck (h) (Homo sapiens, UniProt P06239); assay: Lck human kinase assay (glass-fiber filter); format: biochemical; conditions: test concentration of 10^−6M; read-out: C9 score (inhibition of Lck human)
In short: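 Kinase activity measured as transfer of (^33P) from radiolabeled MgATP to substrate, captured on P30 glass-fiber filtermat, washed in 75 mM phosphoric acid and methanol, then scintillation counted.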

Lyn (h) = Lyn (h) (Homo sapiens, UniProt P07948); assay: Lyn human kinase assay (glass-fiber filter); format: biochemical; conditions: test concentration of 10^−6M; read-out: C10 score (inhibition of Lyn human)
Chain of Lyn (h) (P07948 whole entry): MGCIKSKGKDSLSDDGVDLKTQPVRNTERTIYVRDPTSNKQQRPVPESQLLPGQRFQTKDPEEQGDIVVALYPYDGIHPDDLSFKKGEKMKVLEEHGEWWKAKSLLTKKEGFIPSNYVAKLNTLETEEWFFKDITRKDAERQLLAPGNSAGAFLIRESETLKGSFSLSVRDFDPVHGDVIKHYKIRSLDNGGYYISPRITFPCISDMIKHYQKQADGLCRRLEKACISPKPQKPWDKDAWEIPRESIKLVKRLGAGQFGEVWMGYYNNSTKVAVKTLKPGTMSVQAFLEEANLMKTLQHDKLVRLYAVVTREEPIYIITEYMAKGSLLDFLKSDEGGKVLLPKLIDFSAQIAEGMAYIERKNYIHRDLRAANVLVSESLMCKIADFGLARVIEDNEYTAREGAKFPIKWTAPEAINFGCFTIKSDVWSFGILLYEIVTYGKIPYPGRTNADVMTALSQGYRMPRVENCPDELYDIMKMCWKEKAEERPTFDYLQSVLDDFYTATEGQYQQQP
In short: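 Human Lyn (5-10 mU) phosphorylating poly(Glu,Tyr) 4:1 at 0.1 mg/ml with [γ-33P]ATP (concentration as required) in 50 mM Tris pH 7.5, 10 mM Mg acetate, 40 min at room temperature. Stopped with phosphoric acid; substrate-bound radioactivity counted on glass-fibre filter.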

cSRC (h) = cSRC (h) (Homo sapiens, UniProt P12931); assay: cSRC human kinase assay (glass-fiber filter); format: biochemical; conditions: test concentration of 10^−6M; read-out: C3 score (inhibition of cSRC human)
In short: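 Radiometric assay: kinase and substrate are incubated with [33P]ATP, with the reaction started by MgATP mix. The reaction is spotted on P30 filtermat, washed in 75 mM phosphoric acid and methanol, and the bound 33P is measured by scintillation counting.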

Yes (h) = Yes (h) (Homo sapiens, UniProt P07947); assay: Yes human kinase assay (glass-fiber filter); format: biochemical; conditions: test concentration of 10^−6M; read-out: C11 score (inhibition of Yes human)
Chain of Yes (h) (P07947 whole entry): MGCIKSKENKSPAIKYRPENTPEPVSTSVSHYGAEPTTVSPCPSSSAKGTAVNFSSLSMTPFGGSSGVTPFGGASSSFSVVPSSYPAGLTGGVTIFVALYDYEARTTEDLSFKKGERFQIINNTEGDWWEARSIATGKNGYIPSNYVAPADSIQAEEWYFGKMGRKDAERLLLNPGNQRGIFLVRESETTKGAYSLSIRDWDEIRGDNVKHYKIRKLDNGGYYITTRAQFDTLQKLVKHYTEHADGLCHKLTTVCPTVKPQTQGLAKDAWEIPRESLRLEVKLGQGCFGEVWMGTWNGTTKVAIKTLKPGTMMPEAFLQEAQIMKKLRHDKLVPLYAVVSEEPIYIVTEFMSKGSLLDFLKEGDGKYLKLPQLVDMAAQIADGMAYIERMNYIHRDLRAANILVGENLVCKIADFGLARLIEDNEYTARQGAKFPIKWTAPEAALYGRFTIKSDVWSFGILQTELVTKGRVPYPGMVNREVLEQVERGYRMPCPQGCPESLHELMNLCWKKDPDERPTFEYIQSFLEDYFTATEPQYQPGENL
In short: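 Yes (h) (5-10 mU) with 0.1 mg/ml poly(Glu, Tyr) 4:1 in 8 mM MOPS pH 7.0, 0.2 mM EDTA, 10 mM MgAcetate and [γ-^33P-ATP], 40 minutes at room temperature. Stopped with phosphoric acid; substrate-bound ^33P counted on glass-fiber filter by scintillation.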

Abl (h) = Abl (h) (Homo sapiens, UniProt P00519); assay: Abl human kinase assay (glass-fiber filter); format: biochemical; conditions: test concentration of 10^−6M; read-out: C1 score (inhibition of Abl human)
Fes (h) = Fes (h) (Homo sapiens, UniProt P07332); assay: Fes human kinase assay (glass-fiber filter); format: biochemical; conditions: test concentration of 10^−6M; read-out: C4 score (inhibition of Fes human)
In short: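 Human Fes (5–10 mU) was incubated with 0.1 mg/ml poly(Glu,Tyr) 4:1 in 8 mM MOPS pH 7.0, 0.2 mM EDTA, 10 mM Mg acetate and [γ-33P]ATP for 40 min at room temperature. The reaction was stopped with phosphoric acid, and substrate phosphorylation was quantified by filter binding and scintillation counting.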

T1 sequence (P00533 712-979 limits assumed): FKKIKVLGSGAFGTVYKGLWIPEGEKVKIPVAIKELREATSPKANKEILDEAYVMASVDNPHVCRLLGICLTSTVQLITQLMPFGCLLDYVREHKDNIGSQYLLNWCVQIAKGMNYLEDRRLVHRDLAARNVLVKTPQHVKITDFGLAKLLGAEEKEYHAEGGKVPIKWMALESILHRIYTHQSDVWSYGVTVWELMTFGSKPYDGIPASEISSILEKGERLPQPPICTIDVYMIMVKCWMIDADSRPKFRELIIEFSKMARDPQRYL

| SMILES | IC50 (EGFR-kinase domain) [nM] | IC50 (ErbB2 (h)) [nM] | IC50 (ErbB4 (h)) [nM] | other results |
| --- | --- | --- | --- | --- |
| CN1CC(=O)N2CCC2C(=O)NCc2cccc(c2)Nc2cc(ncn2)Nc2cccc(c2)C1 (centres unmarked) [Compound 151] | < 1000 | < 1000 | < 1000 |  |
| CCN1CCNC(=O)C(CC(C)C)NC(=O)CN(C)Cc2cccc(c2)Nc2cc(ncn2)Nc2cccc(c2)C1 (centres unmarked) [Compound 154] | 1000 to 10000 | 1000 to 10000 |  |  |
| CN1CC(=O)NC(CCc2ccccc2)C(=O)NCc2cccc(c2)Nc2cc(ncn2)Nc2cccc(c2)C1 (centres unmarked) [Compound 152] | < 1000 | < 1000 | < 1000 |  |
| CCN1CCNC(=O)C(CCCCN(C)C)NC(=O)CN(C)Cc2cccc(c2)Nc2cc(ncn2)Nc2cccc(c2)C1 (centres unmarked) [Compound 153] |  | 1000 to 10000 |  |  |
| COc1ccc2cc1OCCNC(=O)C1CN(CCO1)C(=O)CN(C)Cc1cccc(c1)Nc1cc(ncn1)N2 (racemic) [Compound 158] | < 1000 | 1000 to 10000 |  |  |
| COCCOc1ccc2cc1OCCCCCN(C)Cc1cc(F)c(Cl)cc1Nc1cc(ncn1)N2 |  |  |  | ring closure, yield of all isomers (from COCCOc1ccc(Nc2cc(Nc3cc(Cl)c(F)cc3CN(C)CCCCCO)ncn2)cc1O, ether bond, 1,1'-(azodicarbonyl)dipiperidine (ADDP)/tributylphosphine, THF, 28.6 mM, 25.0 °C, 64.0 h): 44% |
| N#Cc1cnc2nc1Nc1cccc(c1)C(=O)NCC(=O)NCc1cccc(c1)N2 [Compound 5, 2,4,8,15,18,26-hexaazatetracyclo[18.3.1.1˜3,7˜.1˜9,13˜]hexacosa-1(24),3,5,7(26),9,11,13(25),20,22-nonaene-6-carbonitrile, 14,17-dioxo-] |  |  |  | ring closure, yield of all isomers (from N#Cc1cnc(Nc2cccc(CNC(=O)CN)c2)nc1Nc1cccc(C(=O)O)c1, amide bond, HBTU, DMF, 22.5 mM, 25.0 °C, 3.0 h): 14%; inhibition at 1 µM (Flt3 (h)): 10 to 30% |
| COc1ccc2cc1OCCCNC(=O)CCN1CCC(CC1)N(C)Cc1ccc(Cl)c(c1)Nc1cc(ncn1)N2 [Compound 216] |  |  | 1000 to 10000 |  |
| O=C1COc2cccc(c2)Nc2nccc(n2)Nc2cccc(c2)OCCCCN1 [Compound 4, 14,22-dioxa-2,4,8,19,29-pentaazatetracyclo[21.3.1.1˜3,7˜.1˜9,13˜]nonacosa-1(27),3,5,7(29),9,11,13(28),23,25-nonaen-20-one] |  |  |  | inhibition at 1 µM (Fms (h)): 60 to 80%; inhibition at 1 µM (Lck (h)): 30 to 60%; inhibition at 1 µM (Lyn (h)): 10 to 30%; inhibition at 1 µM (cSRC (h)): 30 to 60%; ring closure, yield of all isomers (from NCCCCOc1cccc(Nc2ccnc(Nc3cccc(OCC(=O)O)c3)n2)c1, amide bond, HBTU, DMF, 7.67 mM, 25.0 °C, 2.0 h): 9%; inhibition at 1 µM (Yes (h)): 30 to 60%; inhibition at 1 µM (Abl (h)): 10 to 30%; inhibition at 1 µM (Fes (h)): 30 to 60%; inhibition at 1 µM (Flt3 (h)): > 80% |
| COc1ccc2cc1OCCNC(=O)C(Cc1ccc(C(F)(F)F)cc1)NC(=O)CN(C)Cc1cccc(c1)Nc1cc(ncn1)N2 (centres unmarked) [Compound 114] | < 1000 | 1000 to 10000 |  |  |
| CCN1CCNC(=O)C(Cc2ccc(C(F)(F)F)cc2)NC(=O)CN(C)Cc2cccc(c2)Nc2cc(ncn2)Nc2cccc(c2)C1 (centres unmarked) [Compound 156] | < 1000 | 1000 to 10000 | < 1000 |  |
| COc1ccc2cc1OCCNC(=O)C(Cc1ccccc1)NCc1cccc(c1)Nc1cc(ncn1)N2 (centres unmarked) |  |  |  | ring closure, yield of all isomers (from COc1ccc(Nc2cc(Nc3cccc(CNC(Cc4ccccc4)C(=O)O)c3)ncn2)cc1OCCN, amide bond, HBTU, DMF, 3.85 mM, 1.0 h): 14% |
| CN(C)CCCCC1NC(=O)CN(C)Cc2cccc(c2)Nc2cc(ncn2)Nc2cccc(c2)CN2CCN(CC2)C1=O (centres unmarked) [Compound 159] | < 1000 | 1000 to 10000 |  |  |
| CN(C)CCCCC1NC(=O)CN(C)Cc2cccc(c2)Nc2cc(ncn2)Nc2cccc(c2)CNC1=O (centres unmarked) [Compound 148] | < 1000 | 1000 to 10000 | 1000 to 10000 |  |
| CC(C)CC1NC(=O)CN(C)Cc2cccc(c2)Nc2cc(ncn2)Nc2cccc(c2)CNC1=O (centres unmarked) [Compound 149] | < 1000 | 1000 to 10000 | < 1000 |  |

Now from value to molecule, other results behind:

| IC50 (EGFR-kinase domain) [nM] | IC50 (ErbB2 (h)) [nM] | IC50 (ErbB4 (h)) [nM] | SMILES | other results |
| --- | --- | --- | --- | --- |
| < 1000 | < 1000 | < 1000 | C#CCC1NC(=O)CN(C)Cc2cccc(c2)Nc2cc(ncn2)Nc2cccc(c2)CNC1=O (centres unmarked) [Compound 150] |  |
| < 1000 | 1000 to 10000 | 1000 to 10000 | O=C1COc2cccc(c2)Nc2cc(ncn2)Nc2cccc(c2)CCN1 [Compound 160] |  |
|  | 1000 to 10000 | < 1000 | O=C1CN2CCN(CC2)Cc2cccc(c2)Nc2cc(ncn2)Nc2cccc(c2)CCN1 [Compound 164] |  |
| < 1000 | 1000 to 10000 | 1000 to 10000 | COc1ccc2cc1OCCNC(=O)COc1cccc(c1)Nc1cc(ncn1)N2 [Compound 162] |  |
|  | < 1000 |  | O=C1COc2cccc(c2)Nc2cc(ncn2)Nc2cccc(c2)OCCCCCN1 [Compound 163] |  |
| < 1000 | < 1000 | < 1000 | O=C1CN2CCN(CC2)Cc2cccc(c2)Nc2cc(ncn2)Nc2cccc(c2)OCCCCCN1 [Compound 112] |  |
| < 1000 | 1000 to 10000 | < 1000 | CCN1CCNC(=O)COc2cccc(c2)Nc2cc(ncn2)Nc2cccc(c2)C1 [Compound 161] |  |
